Test results: ChEMBL document CHEMBL3091384, “Chemical probes to study ADP-ribosylation: synthesis and biochemical evaluation of inhibitors of the human ADP-ribosyltransferase ARTD3/PARP3” (J Med Chem, 2013)

Columns and labels:
Homo sapiens = species: Homo sapiens; experiment: Binding affinity to […] (unknown origin) assessed as change in melting temperature by thermal stabilization assay
[1] = molecular target: Poly [ADP-ribose] polymerase 1 (Homo sapiens, UniProt P09874)
[2] = tested on: Poly [ADP-ribose] polymerase 14, ARTD8/PARP14 (Homo sapiens)
[3] = molecular target: Poly [ADP-ribose] polymerase 2 (Homo sapiens) (UniProt Q9UGN5)
Chain of Poly [ADP-ribose] polymerase 2 (Homo sapiens) (Q9UGN5 whole entry): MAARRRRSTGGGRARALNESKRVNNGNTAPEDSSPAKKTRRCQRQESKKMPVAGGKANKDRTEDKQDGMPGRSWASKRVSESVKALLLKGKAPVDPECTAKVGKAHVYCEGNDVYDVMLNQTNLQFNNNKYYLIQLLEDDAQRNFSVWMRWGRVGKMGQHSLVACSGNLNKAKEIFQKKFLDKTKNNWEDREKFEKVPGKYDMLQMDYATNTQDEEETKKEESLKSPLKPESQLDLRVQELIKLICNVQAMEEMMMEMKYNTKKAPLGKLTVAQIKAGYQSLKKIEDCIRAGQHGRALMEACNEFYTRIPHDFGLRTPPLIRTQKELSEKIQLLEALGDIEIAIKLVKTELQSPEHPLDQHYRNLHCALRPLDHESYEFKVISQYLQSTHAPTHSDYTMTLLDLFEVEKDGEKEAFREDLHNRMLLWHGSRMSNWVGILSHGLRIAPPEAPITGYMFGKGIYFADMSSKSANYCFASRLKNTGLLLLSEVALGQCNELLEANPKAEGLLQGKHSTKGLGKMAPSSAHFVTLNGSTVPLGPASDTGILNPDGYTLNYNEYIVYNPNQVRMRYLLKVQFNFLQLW

[4] = molecular target: T1, Protein mono-ADP-ribosyltransferase PARP3 (Homo sapiens) (UniProt Q9Y6F1)
T1 sequence (whole entry): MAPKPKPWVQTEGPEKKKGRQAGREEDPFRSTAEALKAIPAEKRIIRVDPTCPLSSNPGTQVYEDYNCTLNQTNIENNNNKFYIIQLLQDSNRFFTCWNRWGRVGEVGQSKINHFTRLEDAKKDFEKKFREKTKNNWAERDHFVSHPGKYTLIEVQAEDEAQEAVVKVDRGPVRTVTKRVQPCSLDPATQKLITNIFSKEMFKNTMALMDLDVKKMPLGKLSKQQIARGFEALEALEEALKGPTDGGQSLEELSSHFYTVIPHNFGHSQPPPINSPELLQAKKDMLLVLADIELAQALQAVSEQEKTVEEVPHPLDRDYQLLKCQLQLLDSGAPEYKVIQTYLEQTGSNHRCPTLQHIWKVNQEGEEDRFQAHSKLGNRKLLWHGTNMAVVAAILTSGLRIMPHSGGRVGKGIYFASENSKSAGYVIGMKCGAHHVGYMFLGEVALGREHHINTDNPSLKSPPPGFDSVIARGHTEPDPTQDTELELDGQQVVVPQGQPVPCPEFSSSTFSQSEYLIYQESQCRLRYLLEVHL

Chain of Poly [ADP-ribose] polymerase 1 (P09874 whole entry): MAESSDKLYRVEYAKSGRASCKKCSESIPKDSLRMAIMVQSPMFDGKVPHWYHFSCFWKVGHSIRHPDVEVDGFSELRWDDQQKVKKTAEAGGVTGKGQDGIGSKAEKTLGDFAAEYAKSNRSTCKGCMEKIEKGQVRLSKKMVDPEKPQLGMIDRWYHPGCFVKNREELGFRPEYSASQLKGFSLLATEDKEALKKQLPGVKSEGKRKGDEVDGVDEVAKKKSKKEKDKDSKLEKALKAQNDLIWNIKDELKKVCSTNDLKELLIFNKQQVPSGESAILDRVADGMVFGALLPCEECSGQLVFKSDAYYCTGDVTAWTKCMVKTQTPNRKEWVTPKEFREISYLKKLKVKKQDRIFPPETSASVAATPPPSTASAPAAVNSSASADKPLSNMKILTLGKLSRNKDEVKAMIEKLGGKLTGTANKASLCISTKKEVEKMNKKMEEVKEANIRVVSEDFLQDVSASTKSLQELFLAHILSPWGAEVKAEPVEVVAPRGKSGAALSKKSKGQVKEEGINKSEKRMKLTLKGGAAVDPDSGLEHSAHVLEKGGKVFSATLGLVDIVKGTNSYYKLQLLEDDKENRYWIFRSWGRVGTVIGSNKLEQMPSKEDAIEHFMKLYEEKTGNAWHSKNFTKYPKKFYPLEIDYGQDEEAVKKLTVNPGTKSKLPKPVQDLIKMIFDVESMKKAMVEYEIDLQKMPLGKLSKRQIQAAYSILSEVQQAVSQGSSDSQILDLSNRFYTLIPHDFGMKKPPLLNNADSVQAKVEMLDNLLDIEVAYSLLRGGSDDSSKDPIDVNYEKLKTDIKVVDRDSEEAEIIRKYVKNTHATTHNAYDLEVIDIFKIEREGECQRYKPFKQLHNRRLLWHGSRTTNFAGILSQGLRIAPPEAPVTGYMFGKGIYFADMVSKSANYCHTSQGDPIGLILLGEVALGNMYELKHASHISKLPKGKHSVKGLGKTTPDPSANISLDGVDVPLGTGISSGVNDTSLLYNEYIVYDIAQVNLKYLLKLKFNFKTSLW

Row | ΔTm (Homo sapiens) [°C] | ΔTm [1] [°C] | ΔTm [2] [°C] | ΔTm [3] [°C] | ΔTm [4] [°C] | Compound
1 | 0.64 | – | – | – | – | CC(NC(=O)CCc1nc2ccccc2c(=O)[nH]1)c1ccc(-n2ccnc2)cc1 (racemic)
2 | 1.2 | 1.52 | 0.13 | 2.29 | 3.46 | O=C(CCCc1nc2ccccc2c(=O)[nH]1)N[C@@H]1CCc2ccccc21
3 | 0.52 | 2.17 | -0.28 | 0.77 | 0.45 | O=C(CCc1nc2ccccc2c(=O)[nH]1)NC(c1ccc(Cl)cc1)C1CC1 (racemic)
4 | 0.97 | 4 | -0.11 | 0.53 | 3.29 | O=C(CCc1nc2ccccc2c(=O)[nH]1)NCc1ccc([N+](=O)[O-])cc1
5 | 0.13 | 1 | -0.18 | 0.06 | 0.75 | C[C@H](NC(=O)CCc1nc2ccccc2c(=O)[nH]1)c1cccc(F)c1
6 | 1.94 | – | – | – | – | CC(NC(=O)CCc1nc2ccccc2c(=O)[nH]1)c1ccc(S(N)(=O)=O)cc1 (racemic)
7 | 0.39 | 0.88 | -0.77 | 0.33 | 4.95 | C[C@H](NC(=O)NCc1nc2ccccc2c(=O)[nH]1)c1ccccc1
8 | 0 | – | – | – | – | CC(NC(=O)CCc1nc2ccccc2c(=O)[nH]1)c1ccccn1 (racemic)
9 | 0.69 | 3.11 | 0.69 | 1.37 | 4.2 | O=C(CCc1nc2ccccc2c(=O)[nH]1)NCc1ccc(F)cc1
10 | 1.37 | 1.56 | -0.05 | 0.21 | 4.27 | C[C@@H](NC(=O)CCCc1nc2ccccc2c(=O)[nH]1)c1ccccc1
11 | 0.35 | – | – | – | – | C[C@@H](NC(=O)CCc1nc2ccccc2c(=O)[nH]1)c1ccccc1
12 | 0.59 | 1.88 | -0.18 | 1.27 | 4.69 | O=C(CCCc1nc2ccccc2c(=O)[nH]1)N[C@H]1CCc2ccccc21
13 | 0.32 | 2.16 | -0.28 | 1.77 | 2.63 | O=C(CCc1nc2ccccc2c(=O)[nH]1)NCc1ccccc1
14 | 0.48 | 1.85 | 0.26 | 1.64 | 5.39 | O=C(CCc1nc2ccccc2c(=O)[nH]1)NCc1ccccc1Cl
15 | 0.3 | 2.68 | 0 | 1.82 | 5.02 | CC(NC(=O)CCc1nc2ccccc2c(=O)[nH]1)c1ccncc1 (racemic)
16 | 0.56 | – | – | – | – | C[C@@H](CO)NC(=O)CCc1nc2ccccc2c(=O)[nH]1
17 | 0.49 | 2.83 | 0.2 | 1.57 | 6.23 | O=C(CCc1nc2ccccc2c(=O)[nH]1)NCCc1ccccc1
18 | 0.11 | 1.37 | 0.32 | 0.33 | 5.94 | CON(C)C(=O)[C@H](Cc1ccccc1)NC(=O)CCc1nc2ccccc2c(=O)[nH]1
19 | 0.52 | 1.51 | -0.21 | 0.37 | 4.58 | C[C@H](NC(=O)CCCc1nc2ccccc2c(=O)[nH]1)c1ccccc1
20 | 0.44 | 2 | 0.57 | 0.87 | 3.07 | Cc1ccc(C)c(C(C)NC(=O)CCc2nc3ccccc3c(=O)[nH]2)c1 (racemic)
21 | 0.13 | – | – | – | – | C[C@H](NC(=O)CCc1nc2ccccc2c(=O)[nH]1)c1ccccc1
22 | 0.7 | 2.79 | -0.27 | 1.3 | 6.31 | O=C(CCc1nc2ccccc2c(=O)[nH]1)NCc1ccccc1O
23 | 0.05 | 0.37 | -0.04 | -0.25 | 0.63 | C[C@@H](NC(=O)Cc1nc2ccccc2c(=O)[nH]1)c1ccccc1
24 | 1.83 | 2.44 | 0.24 | 1.11 | 2.28 | O=C(CCc1nc2ccccc2c(=O)[nH]1)NC1CCCc2ccccc21 (stereo unspecified)
25 | 1.05 | 2.9 | 0.53 | 1.84 | 3.22 | O=C(CCCc1nc2ccccc2c(=O)[nH]1)N[C@H](CO)c1ccccc1
26 | 0.15 | 1.93 | – | 1.48 | 4.83 | O=C(CCc1nc(O)c2ccccc2n1)NCc1ccccn1
27 | 0.18 | 0.04 | 0.04 | -0.59 | 0.12 | C[C@H](NC(=O)CCc1nc2ccccc2c(=O)[nH]1)c1ccc(Cl)cc1

Row | ΔTm (Homo sapiens) [°C] | ΔTm [1] [°C] | ΔTm [2] [°C] | ΔTm [3] [°C] | ΔTm [4] [°C] | Compound
28 | 0.42 | 1.22 | -0.07 | -0.67 | 0.22 | C[C@H](NC(=O)/C=C/c1nc2ccccc2c(=O)[nH]1)c1ccccc1
29 | 0.36 | 0.76 | -0.25 | 0.98 | 0.5 | O=C(CCc1nc2cc(Cl)ccc2c(=O)[nH]1)N[C@H](CO)c1ccccc1
30 | 0.08 | 0.41 | -0.7 | -0.17 | 6.25 | O=C(/C=C/c1nc2ccccc2c(=O)[nH]1)N[C@H](CO)Cc1ccccc1
31 | 0.33 | – | – | – | – | CC[C@H](NC(=O)CCc1nc2ccccc2c(=O)[nH]1)c1ccccc1
32 | 0.12 | – | – | – | – | C[C@@H](NC(=O)CCc1nc2ccccc2c(=O)[nH]1)c1ccccn1
33 | 0.14 | 1.15 | -0.07 | -0.17 | 4.73 | O=C(CCc1nc2ccccc2c(=O)[nH]1)N1CCc2ccccc2C1
34 | 0.96 | 3.39 | 0.31 | 1.35 | 0.78 | O=C(CCc1nc2ccccc2c(=O)[nH]1)NCc1ccc(OC(F)F)cc1
35 | 0.41 | 0.44 | 0.02 | 0.53 | 0.09 | O=C(CCCc1nc2ccccc2c(=O)[nH]1)NC(c1ccccc1)c1ccccc1
36 | 0.6 | – | – | – | – | O=C(CCc1nc2ccccc2c(=O)[nH]1)N[C@H](CO)Cc1ccccc1
37 | 0.2 | 0.11 | 0.82 | 0.83 | 0.35 | O=C(CCc1nc2cc(Cl)ccc2c(=O)[nH]1)NC(c1ccccc1)c1ccccc1
38 | 0.07 | 1.93 | 0.13 | 0.98 | 5.71 | CCC(=O)[C@H](Cc1ccccc1)NC(=O)CCc1nc2ccccc2c(=O)[nH]1
39 | 0.44 | 0.9 | 0.16 | 0.74 | 5.96 | CC(C)(C)CC(NC(=O)CCc1nc2ccccc2c(=O)[nH]1)c1ccccc1 (racemic)
40 | 0.01 | 0.31 | 0.04 | -0.01 | 0.43 | C[C@H](NC(=O)Cc1nc2ccccc2c(=O)[nH]1)c1ccccc1
41 | 0.43 | 0.92 | 0.05 | 1.28 | 0.16 | C[C@@H](NC(=O)CCc1nc2cc(Cl)ccc2c(=O)[nH]1)c1ccccc1
42 | 1.08 | – | – | – | – | NC(=O)[C@H](Cc1ccccc1)NC(=O)CCc1nc2ccccc2c(=O)[nH]1
43 | 0.22 | 0.22 | -0.22 | -0.47 | 0.74 | Cc1ccc([C@H](C)NC(=O)CCc2nc3ccccc3c(=O)[nH]2)cc1C
44 | 0.29 | 0.26 | -0.1 | -0.48 | 0.2 | C[C@H](NC(=O)CCc1nc2ccccc2c(=O)[nH]1)c1cccc(Cl)c1
45 | 0.23 | 0.25 | -0.37 | -0.6 | 0.69 | C[C@H](NC(=O)CCc1nc2ccccc2c(=O)[nH]1)c1cccc(C(F)(F)F)c1
46 | 0.5 | – | – | – | – | COC(=O)[C@H](Cc1ccccc1)NC(=O)CCc1nc2ccccc2c(=O)[nH]1
47 | 0.13 | – | – | – | – | C[C@H](NC(=O)CCc1nc2ccccc2c(=O)[nH]1)c1ccccn1
48 | 0.22 | 0.2 | 0.45 | 0.3 | 0.2 | O=C(CCc1nc2ccccc2c(=O)[nH]1)NC(c1ccccc1)c1ccccc1
49 | 0.54 | 1.45 | – | 1.14 | 2.96 | COc1ccccc1CNC(=O)CCc1nc(O)c2ccccc2n1
50 | 0.12 | 0.36 | 0.12 | -0.46 | 0.42 | C[C@H](NC(=O)CCc1nc2ccccc2c(=O)[nH]1)c1ccccc1F
51 | 0.34 | 0.65 | -1.05 | -0.23 | 2.91 | O=C(NCc1ccccc1)NCc1nc2ccccc2c(=O)[nH]1
52 | 0.22 | 0.24 | -0.37 | -0.32 | 1.36 | O=C(CCc1nc2ccccc2c(=O)[nH]1)N[C@@H](Cc1ccccc1)C(=O)O
53 | 0.35 | – | – | – | – | CC[C@@H](CO)NC(=O)CCc1nc2ccccc2c(=O)[nH]1
54 | 0.82 | 2.83 | 0.38 | 1.64 | 3.57 | O=C(CCc1nc2ccccc2c(=O)[nH]1)N[C@H](CO)c1ccccc1
